From PMC9534909, “BMS794833 inhibits macrophage efferocytosis by directly binding to MERTK and inhibiting its activity” (Experimental & Molecular Medicine, 2022) come the findings set out here.

The target of assay [1] is T1, MERTK (Homo sapiens, UniProt Q12866, K591R/K693R/K702R/K856R).
T1 construct: kinase domain (residues 571–864), KR mutant
T1 sequence (Q12866 571-864 K591R/K693R/K702R/K856R): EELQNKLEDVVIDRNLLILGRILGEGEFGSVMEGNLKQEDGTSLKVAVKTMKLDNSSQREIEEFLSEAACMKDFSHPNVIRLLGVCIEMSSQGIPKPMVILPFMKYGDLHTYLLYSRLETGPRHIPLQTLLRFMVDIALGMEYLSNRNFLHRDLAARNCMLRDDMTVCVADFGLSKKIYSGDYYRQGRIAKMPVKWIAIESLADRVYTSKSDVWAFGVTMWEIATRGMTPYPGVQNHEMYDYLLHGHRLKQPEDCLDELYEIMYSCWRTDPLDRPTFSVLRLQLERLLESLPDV
The experiment in a line: X-ray cocrystal structure at […] Å. The assay is classed as binding.

The target in assay [2] is T2, MERTK (Homo sapiens, UniProt Q12866).
T2 construct: kinase domain (residues 571–864, wild type; WT)
T2 sequence (Q12866 571-864): T1 sequence (Q12866 571-864 K591R/K693R/K702R/K856R) with R21K, R123K, R132K, R286K
Briefly: HTRF KinEASE-TK kinase kinetic assay. The assay is classed as biochemical.

Where a chain is given by its changes, count along the chain named.

For the compound `Nc1nccc(Oc2ccc(NC(=O)c3c[nH]cc(-c4ccc(F)cc4)c3=O)cc2F)c1Cl` [BMS794833, N-[4-(2-amino-3-chloropyridin-4-yl)oxy-3-fluorophenyl]-5-(4-fluorophenyl)-4-oxo-1H-pyridine-3-carboxamide], in assay [1], the “X-ray cocrystal structure at 2.16 Å” value was “clear electron density map for BMS794833 showed that it occupied both the ATP-binding pocket and the allosteric back pocket”. Moreover, in assay [2], the inhibition constant (Ki) is 22.4 nM.
